Laboratory results as given in ChEMBL document CHEMBL1201862, “PubChem BioAssay data set” (2004).
The source made the active and inactive calls. Cut-off read from the data, not from the text of the source: actives have a measured IC50 and inactives only a lower limit.

Target: Envelope glycoprotein gp160 (Human immunodeficiency virus 1, UniProt Q6QLK5)
Test: inhibitors of HIV fusion peptide binding, primary screen, biochemical, uHTS, fluorescence dequenching (AID 1986)

Envelope glycoprotein gp160, sequence (Q6QLK5 whole entry, the tested form may be a part): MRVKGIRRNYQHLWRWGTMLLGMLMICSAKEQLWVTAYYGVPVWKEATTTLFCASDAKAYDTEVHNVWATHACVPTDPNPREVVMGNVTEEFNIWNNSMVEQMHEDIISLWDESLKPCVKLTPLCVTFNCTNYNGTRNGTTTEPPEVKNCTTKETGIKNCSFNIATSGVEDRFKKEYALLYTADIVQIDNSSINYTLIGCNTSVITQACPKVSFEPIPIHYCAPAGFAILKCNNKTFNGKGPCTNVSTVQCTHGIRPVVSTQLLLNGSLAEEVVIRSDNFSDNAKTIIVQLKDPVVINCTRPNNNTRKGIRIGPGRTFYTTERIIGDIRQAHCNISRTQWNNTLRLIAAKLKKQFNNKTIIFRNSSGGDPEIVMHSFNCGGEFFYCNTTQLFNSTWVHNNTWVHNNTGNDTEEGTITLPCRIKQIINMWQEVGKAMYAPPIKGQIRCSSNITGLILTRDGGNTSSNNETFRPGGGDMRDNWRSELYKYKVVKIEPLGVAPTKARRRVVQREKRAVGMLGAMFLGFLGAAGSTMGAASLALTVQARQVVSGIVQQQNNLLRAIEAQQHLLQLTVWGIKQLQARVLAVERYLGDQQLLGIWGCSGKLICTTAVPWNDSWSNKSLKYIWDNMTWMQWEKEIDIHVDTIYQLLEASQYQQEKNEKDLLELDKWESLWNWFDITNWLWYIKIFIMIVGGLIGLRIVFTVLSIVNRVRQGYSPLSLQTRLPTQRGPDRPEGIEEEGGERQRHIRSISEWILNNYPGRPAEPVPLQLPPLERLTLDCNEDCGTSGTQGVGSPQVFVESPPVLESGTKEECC

| Structure (SMILES) | IC50 |
| --- | --- |
| O=C(O)CCn1cc(/C=C/C(=O)c2ccc(Cl)cc2)c(-c2cccc(Br)c2)n1 | 28 µM (active) |
| COc1cc(/C=C2\SC(NS(=O)(=O)c3ccc(C)cc3)=NC2=O)c([N+](=O)[O-])cc1OC | 17.1 µM (active) |
